Results: patent US20240173307A1, “MODULATORS OF THE INTEGRATED STRESS PATHWAY” (Calico Life Sciences LLC, priority 2017, published 2024)

System: HEK293T cells carrying the ATF4 luciferase reporter
Assay: ATF4-Luc assay (in vitro model of vanishing white matter disease)
Assay type: cell-based
Conditions: Homo sapiens, HEK-293T, 1 μg/mL tunicamycin, 7 hours
Description: In order to test exemplary compounds of the invention in a cellular context, a stable VWMD cell line was first constructed. The ATF4 reporter was prepared by fusing the human full-length ATF4 5′-UTR (NCBI Accession No. BCO22088.2) in front of the firefly luciferase (FLuc) coding sequence lacking the initiator methionine as described in Sidrauski et al (eLife 2013). The construct was used to produce recombinant retroviruses using standard methods and the resulting viral supernatant was used to transduce HEK293T cells, which were then subsequently selected with puromycin to generate a stable cell line.
HEK293T cells carrying the ATF4 luciferase reporter were plated on polylysine coated 384-well plates (Greiner Bio-one) at 30,000 cells per well. Cells were treated the next day with 1 μg/mL tunicamycin and 200 nM of a compound of Formula (I) for 7 hours. Luminescence was measured using One Glo (Promega) as specified by the manufacturer. Cells were maintained in DMEM with L-glutamine supplemented with 10% heat-inactivated FBS (Gibco) and Antibiotic-Antimycotic solution (Gibco).
Table 2 below summarizes the EC50 data obtained using the ATF4-Luc assay for exemplary compounds of the invention.

| Compound | EC50 [nM] |
| --- | --- |
| O=C(COc1ccc(Cl)c(F)c1)NC12CCC(C(=O)NCc3ccc(C(F)(F)F)cn3)(CC1)CC2O (stereo not drawn) [Compound 275, 4-[2-(4-chloro-3-fluorophenoxy)acetamido]-3-hydroxy-N-{[5-(trifluoromethyl)pyridin-2-yl]methyl}bicyclo[2.2.2]octane-1-carboxamide] | < 250 |
| O=C(COc1ccc(Cl)c(F)c1)NC12CCC(C(=O)Nc3ccc(OC(F)(F)F)cn3)(CC1)CC2 [Compound 279, 4-[2-(4-chloro-3-fluorophenoxy)acetamido]-N-[5-(trifluoromethoxy)pyridin-2-yl]bicyclo[2.2.2]octane-1-carboxamide] | < 250 |
| O=C(COc1ccc(Cl)c(Cl)c1)NC12CC(C(=O)Nc3ccc(OC(F)(F)F)cn3)(C1)C2 [Compound 291, 3-[2-(3,4-dichlorophenoxy)acetamido]-N-[5-(trifluoromethoxy)pyridin-2-yl]bicyclo[1.1.1]pentane-1-carboxamide] | < 250 |
| O=C(COc1ccc(Cl)c(F)c1)NC12CC(C(=O)Nc3ccccc3)(C1)C2 [Compound 285, 3-[2-(4-chloro-3-fluorophenoxy)acetamido]-N-phenylbicyclo[1.1.1]pentane-1-carboxamide] | < 250 |
| O=C(COc1ccc(F)c(F)c1)NC12CC(C(=O)Nc3ccc(OC(F)(F)F)cn3)(C1)C2 [Compound 308, 3-[2-(3,4-difluorophenoxy)acetamido]-N-[5-(trifluoromethoxy)pyridin-2-yl]bicyclo[1.1.1]pentane-1-carboxamide] | < 250 |
| NC(=O)CN(Cc1ccc(Cl)c(F)c1)C(=O)C12CCC(NC(=O)COc3ccc(Cl)c(F)c3)(CC1)CC2 [Compound 320, N-(2-amino-2-oxoethyl)-4-[2-(4-chloro-3-fluorophenoxy)acetamido]-N-[(4-chloro-3-fluorophenyl)methyl]bicyclo[2.2.2]octane-1-carboxamide] | 500 to 1000 |
| CCOc1cnc(NC(=O)C23CC(NC(=O)COc4ccc(Cl)c(F)c4)(C2)C3)cn1 [Compound 307, 3-[2-(4-chloro-3-fluorophenoxy)acetamido]-N-(5-ethoxypyrazin-2-yl)bicyclo[1.1.1]pentane-1-carboxamide] | 250 to 500 |
| O=C(COc1ccc(Cl)c(F)c1)NC12CCC(C(=O)NCc3ccc(Cl)cn3)(CC1)OC2 [Compound 342, 4-[2-(4-chloro-3-fluorophenoxy)acetamido]-N-[(5-chloropyridin-2-yl)methyl]-2-oxabicyclo[2.2.2]octane-1-carboxamide] | < 250 |
| O=C(COc1ccc(Cl)c(F)c1)NC12CCC(C(=O)NCc3ccc(Cl)cc3)(CC1)CC2 [Compound 260, 4-[2-(4-chloro-3-fluorophenoxy)acetamido]-N-[(4-chlorophenyl)methyl]bicyclo[2.2.2]octane-1-carboxamide] | < 250 |
| O=C(COc1ccc(Cl)c(F)c1)NC12CCC(C(=O)NCc3ccc(OC(F)F)nc3)(CC1)CC2 [Compound 262, 4-[2-(4-chloro-3-fluorophenoxy)acetamido]-N-{[6-(difluoromethoxy)pyridin-3-yl]methyl}bicyclo[2.2.2]octane-1-carboxamide] | < 250 |
| O=C(COc1ccc(Cl)c(F)c1)NC12CC(C(=O)Nc3ccc(OC(F)F)nc3)(C1)C2 [Compound 282, 3-[2-(4-chloro-3-fluorophenoxy)acetamido]-N-[6-(difluoromethoxy)pyridin-3-yl]bicyclo[1.1.1]pentane-1-carboxamide] | < 250 |
| O=C(COc1ccc(Cl)c(F)c1)NC12CC(C(=O)Nc3ccccc3F)(C1)C2 [Compound 314, 3-[2-(4-chloro-3-fluorophenoxy)acetamido]-N-(2-fluorophenyl)bicyclo[1.1.1]pentane-1-carboxamide] | 500 to 1000 |
| O=C(COc1ccc(Cl)c(F)c1)NC12CCC(C(=O)Nc3ccc(OC(F)(F)F)cc3)(CC1)OC2 [Compound 336, 4-[2-(4-chloro-3-fluorophenoxy)acetamido]-N-[4-(trifluoromethoxy)phenyl]-2-oxabicyclo[2.2.2]octane-1-carboxamide] | < 250 |
| O=C(COc1ccc(C(F)(F)F)nc1)NC12CC(C(=O)Nc3ccc(OC(F)(F)F)cn3)(C1)C2 [Compound 297, N-[5-(trifluoromethoxy)pyridin-2-yl]-3-(2-{[6-(trifluoromethyl)pyridin-3-yl]oxy}acetamido)bicyclo[1.1.1]pentane-1-carboxamide] | < 250 |
| CCOC(=O)c1csc(NC(=O)C23CC(NC(=O)COc4ccc(Cl)c(F)c4)(C2)C3)n1 [Compound 312, ethyl 2-({3-[2-(4-chloro-3-fluorophenoxy)acetamido]bicyclo[1.1.1]pentane-1-carbonyl}amino)-1,3-thiazole-4-carboxylate] | 250 to 500 |
| O=C(COc1ccc(Cl)c(F)c1)NC12CCC(C(=O)NCc3ccc(C(F)F)cn3)(CC1)CC2 [Compound 346, 4-[2-(4-chloro-3-fluorophenoxy)acetamido]-N-{[5-(difluoromethyl)pyridin-2-yl]methyl}bicyclo[2.2.2]octane-1-carboxamide] | < 250 |
| CCOC(=O)c1ccc(NC(=O)C23CC(NC(=O)COc4ccc(Cl)c(F)c4)(C2)C3)nc1 [Compound 311, ethyl 6-({3-[2-(4-chloro-3-fluorophenoxy)acetamido]bicyclo[1.1.1]pentane-1-carbonyl}amino)pyridine-3-carboxylate] | 250 to 500 |
| O=C(COc1ccc(Cl)c(Cl)c1)NC12CCC(C(=O)NCc3ccc(C(F)(F)F)cc3)(CC1)[C@@H](O)C2 (single isomer, unassigned) [Compound 264] | < 250 |
| O=C(COc1ccc(Cl)c(F)c1)NC12CCC(C(=O)NCC(=O)c3ccc(Cl)cc3)(CC1)[C@@H](O)C2 [Compound 273, (2S)-4-[2-(4-chloro-3-fluorophenoxy)acetamido]-N-[2-(4-chlorophenyl)-2-oxoethyl]-2-hydroxybicyclo[2.2.2]octane-1-carboxamide] | < 250 |
| O=C(O)Cn1c(CNC(=O)C23CC(NC(=O)COc4ccc(Cl)c(F)c4)(C2)C3)nc2cc(F)c(F)cc21 [Compound 328, {2-[({3-[2-(4-chloro-3-fluorophenoxy)acetamido]bicyclo[1.1.1]pentane-1-carbonyl}amino)methyl]-5,6-difluoro-1H-benzimidazol-1-yl}acetic acid] | 1000 to 2000 |
| O=C(COc1ccc(Cl)c(Cl)c1)NC12CCC(C(=O)NCc3ccc(C(F)(F)F)cc3)(CC1)C(O)C2 (stereo not drawn) [Compound 255, 4-[2-(3,4-dichlorophenoxy)acetamido]-2-hydroxy-N-{[4-(trifluoromethyl)phenyl]methyl}bicyclo[2.2.2]octane-1-carboxamide] | < 250 |
| O=C(COc1ccc(Cl)c(F)c1)NC12CCC(C(=O)Nc3ccc(OC(F)(F)F)cn3)(C1)C2 [Compound 288, 4-[2-(4-chloro-3-fluorophenoxy)acetamido]-N-[5-(trifluoromethoxy)pyridin-2-yl]bicyclo[2.1.1]hexane-1-carboxamide] | < 250 |
| O=C(COc1ccc(Cl)c(F)c1)NC12CCC(C(=O)NCc3ccc(OC(F)F)cn3)(C1)C2 [Compound 256, 4-[2-(4-chloro-3-fluorophenoxy)acetamido]-N-{[5-(difluoromethoxy)pyridin-2-yl]methyl}bicyclo[2.1.1]hexane-1-carboxamide] | 1000 to 2000 |
| O=C(COc1ccc(Cl)c(F)c1)NC12CC(C(=O)Nc3ccc(C(F)F)cn3)(C1)C2 [Compound 298, 3-[2-(4-chloro-3-fluorophenoxy)acetamido]-N-[5-(difluoromethyl)pyridin-2-yl]bicyclo[1.1.1]pentane-1-carboxamide] | < 250 |
| N#Cc1ccc(NC(=O)C23CC(NC(=O)COc4ccc(Cl)c(F)c4)(C2)C3)nc1 [Compound 305, 3-[2-(4-chloro-3-fluorophenoxy)acetamido]-N-(5-cyanopyridin-2-yl)bicyclo[1.1.1]pentane-1-carboxamide] | < 250 |
| O=C(COc1ccc(Cl)c(F)c1)NC12CC(C(=O)Nc3cnc(C(F)F)cn3)(C1)C2 [Compound 284, 3-[2-(4-chloro-3-fluorophenoxy)acetamido]-N-[5-(difluoromethyl)pyrazin-2-yl]bicyclo[1.1.1]pentane-1-carboxamide] | < 250 |
| O=C(COc1ccc(Cl)c(F)c1)NC12CCC(C(=O)NCc3ccc(Cl)c(F)c3)(CC1)OC2 [Compound 334, 4-[2-(4-chloro-3-fluorophenoxy)acetamido]-N-[(4-chloro-3-fluorophenyl)methyl]-2-oxabicyclo[2.2.2]octane-1-carboxamide] | 250 to 500 |
| O=C(COc1ccc(Cl)c(F)c1)NC12CCC(C(=O)NCc3ccc(C(F)(F)F)cn3)(CC1)CC2 [Compound 261, 4-[2-(4-chloro-3-fluorophenoxy)acetamido]-N-{[5-(trifluoromethyl)pyridin-2-yl]methyl}bicyclo[2.2.2]octane-1-carboxamide] | < 250 |
| O=C(COc1ccc(Cl)c(F)c1)NC12CCC(C(=O)Nc3ccc(OC(F)F)nc3)(CC1)CC2 [Compound 278, 4-[2-(4-chloro-3-fluorophenoxy)acetamido]-N-[6-(difluoromethoxy)pyridin-3-yl]bicyclo[2.2.2]octane-1-carboxamide] | < 250 |
| O=C(COc1ccc(Cl)c(F)c1)NC12CC(C(=O)Nc3ccc(Cl)cc3)(C1)C2 [Compound 283, 3-[2-(4-chloro-3-fluorophenoxy)acetamido]-N-(4-chlorophenyl)bicyclo[1.1.1]pentane-1-carboxamide] | < 250 |
